Data reported in ChEMBL document CHEMBL3045419, “Synthesis and Acaricidal Activity of N-(3-Pyridylmethyl)pyrazolecarboxamide Derivatives” (1997).

Assays:
Type in all cases: functional
Tetranychus urticae [1] = assay: Acaricidal against Tetranychus urticae (two-spotted spider mite) assessed as mortality at 3.1 ppm
Tetranychus urticae [2] = assay: Acaricidal against Tetranychus urticae (two-spotted spider mite) assessed as mortality at 12.5 ppm
Tetranychus urticae [3] = assay: Acaricidal against Tetranychus urticae (two-spotted spider mite) assessed as mortality at 50 ppm
Tetranychus urticae [4] = assay: Acaricidal against Tetranychus urticae (two-spotted spider mite) assessed as mortality at 200 ppm
Tetranychus urticae [5] = assay: Acaricidal against Tetranychus urticae (two-spotted spider mite) assessed as mortality at 500 ppm

SMILES | Activity (Tetranychus urticae [1]) | Activity (Tetranychus urticae [2]) | Activity (Tetranychus urticae [3]) | Activity (Tetranychus urticae [4]) | Activity (Tetranychus urticae [5])
CCc1nn(C)c(C(=O)NCc2cccnc2)c1Cl | 0% | 0% | 0% | 0% | 30%
CCCc1ccc(CNC(=O)c2c(Cl)c(CC)nn2C)cn1 | 0% | 0% | 30% | 80% | 100%
CCc1nn(C)c(C(=O)NCc2ccc(C(C)C)nc2)c1Cl | 0% | 30% | 100% | 100% | 100%
CCCCc1ccc(CNC(=O)c2c(Cl)c(CC)nn2C)cn1 | 0% | 30% | 100% | 100% | 100%
CCc1nn(C)c(C(=O)NCc2ccc(CC(C)C)nc2)c1Cl | 0% | 30% | 100% | 100% | 100%
CCc1nn(C)c(C(=O)NCc2ccc(C(C)(C)C)nc2)c1Cl | 80% | 100% | 100% | 100% | 100%
CCc1nn(C)c(C(=O)NCc2cnccc2C(C)(C)C)c1Cl | 100% | 100% | 100% | 100% | 100%
CCCCCc1ccc(CNC(=O)c2c(Cl)c(CC)nn2C)cn1 | 0% | 100% | 100% | 100% | 100%
CCc1nn(C)c(C(=O)NCc2ccc(CC(C)(C)C)nc2)c1Cl | 30% | 100% | 100% | 100% | 100%
CCCOc1ccc(CNC(=O)c2c(Cl)c(CC)nn2C)cn1 | 0% | 0% | 30% | 30% | 80%
CCc1nn(C)c(C(=O)NCc2ccc(OC(C)C)nc2)c1Cl | 0% | 30% | 80% | 100% | 100%
CCc1nn(C)c(C(=O)NCc2ccc(OC(C)C(F)(F)F)nc2)c1Cl (stereo not given) | 30% | 100% | 100% | 100% | 100%
CCc1nn(C)c(C(=O)NCc2ccc(OCC(F)(F)C(F)F)nc2)c1Cl | 30% | 80% | 100% | 100% | 100%
CCc1nn(C)c(C(=O)NCc2ccc(OCC(F)(F)C(F)(F)F)nc2)c1Cl | 30% | 80% | 100% | 100% | 100%
CCCCOc1ccc(CNC(=O)c2c(Cl)c(CC)nn2C)cn1 | 30% | 30% | 80% | 100% | 100%
CCc1nn(C)c(C(=O)NCc2ccc(OCCCC(F)(F)F)nc2)c1Cl | 30% | 80% | 100% | 100% | 100%
CCc1nn(C)c(C(=O)NCc2ccc(OCC(F)(F)C(F)(F)C(F)(F)F)nc2)c1Cl | 80% | 100% | 100% | 100% | 100%
